Each block holds one compound with its values, some of them ahead of it. Activity calls are given as the source filed them. The calls are words filed in the database; no cut-off is given here.
Legend:
Quadruplex DNA [1] = assay: Binding affinity to FAM/TAMRA-labelled c-KIT1 G4 DNA (unknown origin) assessed as thermal stabilization at 1 to 8 uM measured at 10 to 95 degreeC by FRET analysis; assay type: nucleic-acid assay; conditions: dose 1-8 µM
Quadruplex DNA [2] = assay: Binding affinity to FAM/TAMRA-labelled c-KIT2 G4 DNA (unknown origin) assessed as thermal stabilization at 1 to 8 uM measured at 10 to 95 degreeC by FRET analysis; assay type: nucleic-acid assay; conditions: dose 1-8 µM
Quadruplex DNA [3] = assay: Binding affinity to FAM/TAMRA-labelled 21g G4 DNA (unknown origin) assessed as thermal stabilization at 1 to 8 uM measured at 10 to 95 degreeC by FRET analysis; assay type: nucleic-acid assay; conditions: dose 1-8 µM
Quadruplex DNA [4] = assay: Binding affinity to FAM/TAMRA-labelled parallel 25ceb G4 DNA (unknown origin) assessed as thermal stabilization at 1 to 8 uM measured at 10 to 95 degreeC by FRET analysis; assay type: nucleic-acid assay; conditions: dose 1-8 µM
Quadruplex DNA [5] = assay: Binding affinity to FAM/TAMRA-labelled c-MYC Pu22 G4 DNA (unknown origin) assessed as thermal stabilization at 1 to 8 uM measured at 10 to 95 degreeC by FRET analysis; assay type: nucleic-acid assay; conditions: dose 1-8 µM
Quadruplex DNA [6] = assay: Binding affinity to FAM/TAMRA-labelled parallel c-MYC Pu24T G4 DNA (unknown origin) assessed as thermal stabilization in the presence of 15 equivalents of double stranded DNA by FRET competition assay; assay type: nucleic-acid assay
Quadruplex DNA [7] = assay: Binding affinity to parallel c-MYC Pu24T G4 DNA (unknown origin) assessed as change in topology at 5 uM by CD spectra analysis; assay type: nucleic-acid assay
Quadruplex DNA [8] = assay: Binding affinity to FAM/TAMRA-labelled parallel c-MYC Pu24T G4 DNA (unknown origin) assessed as thermal stabilization by measuring change in melting temperature at 2 uM in the presence of 100 equivalents of double stranded DNA by FRET competition assay; assay type: nucleic-acid assay
Quadruplex DNA [9] = assay: Binding affinity to FAM/TAMRA-labelled antiparallel TBA G4 DNA (unknown origin) assessed as thermal stabilization at 1 to 8 uM measured at 10 to 95 degreeC by FRET analysis; assay type: nucleic-acid assay; conditions: dose 1-8 µM
dsDNA = assay: Binding affinity to double stranded DNA (unknown origin) assessed as thermal stabilization at 1 to 8 uM measured at 10 to 95 degreeC by FRET analysis; assay type: nucleic-acid assay; conditions: dose 1-8 µM
Quadruplex DNA [10] = assay: Binding affinity to FAM/TAMRA-labelled parallel KRAS G4 DNA (unknown origin) assessed as thermal stabilization in the presence of 15 equivalents of double stranded DNA by FRET competition assay; assay type: nucleic-acid assay
Quadruplex DNA [11] = assay: Binding affinity to FAM/TAMRA-labelled parallel KRAS G4 DNA (unknown origin) assessed as thermal stabilization by measuring change in melting temperature at 2 uM in the presence of 100 equivalents of double stranded DNA by FRET competition assay; assay type: nucleic-acid assay
Quadruplex DNA [12] = assay: Binding affinity to 5'-Cy5-labelled parallel c-MYC Pu24T G4 DNA (unknown origin) assessed as dissociation constant by MST analysis; assay type: nucleic-acid assay
Quadruplex DNA [13] = assay: Binding affinity to parallel c-MYC Pu24T G4 DNA (unknown origin) assessed as thermal stabilization by measuring change in melting temperature at 5 uM measured at 1:1 DNA to ligand ratio by CD spectra analysis; assay type: nucleic-acid assay
Quadruplex DNA [14] = assay: Binding affinity to FAM/TAMRA-labelled parallel c-MYC Pu24T G4 DNA (unknown origin) assessed as thermal stabilization at 1 to 8 uM measured at 10 to 95 degreeC by FRET analysis; assay type: nucleic-acid assay; conditions: dose 1-8 µM
Quadruplex DNA [15] = assay: Binding affinity to FAM/TAMRA-labelled antiparallel Bom17 G4 DNA (unknown origin) assessed as thermal stabilization at 1 to 8 uM measured at 10 to 95 degreeC by FRET analysis; assay type: nucleic-acid assay; conditions: dose 1-8 µM
Quadruplex DNA [16] = assay: Binding affinity to FAM/TAMRA-labelled parallel KRAS G4 DNA (unknown origin) assessed as thermal stabilization at 1 to 8 uM measured at 10 to 95 degreeC by FRET analysis; assay type: nucleic-acid assay; conditions: dose 1-8 µM
[17] = Cytotoxicity against wildtype C57BL/6J mouse cancer activated fibroblast cells assessed as inhibition of cell growth incubated for 5 days by resazurin dye based fluorescence microscopic analysis; assay type: toxicity
[18] = Antitumor activity against KPC mouse pancreatic cancer organoid expressing lentiviral modified GFP co-cultured with WT C57BL/6J mouse pancreatic stellate cells expressing mKate2 assessed as inhibition of cell growth incubated for 5 days by resazurin dye based fluorescence microscopic analysis; assay type: functional, tissue-based; conditions: 120 h

SMILES: Cc1cc(NCCCN)nc(Nc2nc(C)c3ccc4c(c3n2)CCCC4)n1
Activity (dsDNA): inactive
Activity (Quadruplex DNA [14]): Active

SMILES: Cc1cc(NCCCN2CCNCC2)nc(Nc2nc(C)c3ccc4c(c3n2)CCCC4)n1
Activity (dsDNA): inactive
Activity (Quadruplex DNA [14]): Active

SMILES: CCN(CC)CCNc1cc(C)nc(Nc2nc(C)c3ccc4c(c3n2)CCCC4)n1
Activity (dsDNA): inactive
Activity (Quadruplex DNA [14]): Active

SMILES: Cc1cc(NCCCN2CCN(C)CC2)nc(Nc2nc(C)c3ccc4c(c3n2)CCCC4)n1
Activity (Quadruplex DNA [1]): Active
Activity (Quadruplex DNA [2]): Active
Activity (Quadruplex DNA [3]): Active
Activity (Quadruplex DNA [4]): inactive
Activity (Quadruplex DNA [5]): Active
Activity (Quadruplex DNA [6]): Active
Activity (Quadruplex DNA [7]): inactive
ΔTm (Quadruplex DNA [8]): 7 °C
Activity (Quadruplex DNA [9]): inactive
Activity (dsDNA): inactive
Activity (Quadruplex DNA [10]): Active
ΔTm (Quadruplex DNA [11]): 10 °C
Kd (Quadruplex DNA [12]): 280 nM
ΔTm (Quadruplex DNA [13]): 6 °C
Activity (Quadruplex DNA [14]): Active
Activity (Quadruplex DNA [15]): inactive

SMILES: CCN(CC)c1cc(C)nc(Nc2nc(C)c3ccc4c(c3n2)CCCC4)n1
Activity (dsDNA): inactive
Activity (Quadruplex DNA [14]): Active

SMILES: Cc1cc(NCCN2CCN(C)CC2)nc(Nc2nc(C)c3ccc4c(c3n2)CCC4)n1
Activity (Quadruplex DNA [16]): Active
Activity (dsDNA): inactive
IC50 at 5 days [17]: > 500 nM
IC50 [18]: 547 nM
Activity (Quadruplex DNA [14]): Active

SMILES: CCN(CC)CCCNc1cc(C)nc(Nc2nc(C)c3ccc4c(c3n2)CCCC4)n1
Activity (Quadruplex DNA [1]): Active
Activity (Quadruplex DNA [2]): Active
Activity (Quadruplex DNA [3]): Active
Activity (Quadruplex DNA [4]): inactive
Activity (Quadruplex DNA [5]): Active
Activity (Quadruplex DNA [6]): Active
Activity (Quadruplex DNA [7]): inactive
ΔTm (Quadruplex DNA [8]): 7 °C
Activity (Quadruplex DNA [9]): inactive
Activity (dsDNA): inactive
Activity (Quadruplex DNA [10]): Active
ΔTm (Quadruplex DNA [11]): 10 °C
Kd (Quadruplex DNA [12]): 230 nM
ΔTm (Quadruplex DNA [13]): 7 °C
Activity (Quadruplex DNA [14]): Active
Activity (Quadruplex DNA [15]): inactive

More lines, now with the values ahead:

Activity (Quadruplex DNA [1]): Active
Activity (Quadruplex DNA [2]): Active
Activity (Quadruplex DNA [3]): Active
Activity (Quadruplex DNA [4]): inactive
Activity (Quadruplex DNA [5]): Active
Activity (Quadruplex DNA [6]): Active
Activity (Quadruplex DNA [7]): inactive
ΔTm (Quadruplex DNA [8]): 7 °C
Activity (Quadruplex DNA [9]): inactive
Activity (dsDNA): inactive
Activity (Quadruplex DNA [10]): Active
ΔTm (Quadruplex DNA [11]): 10 °C
Kd (Quadruplex DNA [12]): 245 nM
ΔTm (Quadruplex DNA [13]): 8 °C
Activity (Quadruplex DNA [14]): Active
Activity (Quadruplex DNA [15]): inactive
SMILES: Cc1cc(NCCCN2CCCC2)nc(Nc2nc(C)c3ccc4c(c3n2)CCCC4)n1

Activity (dsDNA): inactive
SMILES: Cc1cc(NCCN2CCOCC2)nc(Nc2nc(C)c3ccc4c(c3n2)CCCC4)n1

Activity (Quadruplex DNA [16]): Active
Activity (dsDNA): inactive
Activity (Quadruplex DNA [14]): Active
SMILES: Cc1cc(NCCN2CCN(C)CC2)nc(Nc2nc(C)c3ccc4c(c3n2)CCCC4)n1

Activity (Quadruplex DNA [16]): inactive
Activity (dsDNA): inactive
Activity (Quadruplex DNA [14]): inactive
SMILES: CCOC(=O)CCN1CCN(c2cc(C)nc(Nc3nc(C)c4ccc5c(c4n3)CCCC5)n2)CC1

Activity (dsDNA): inactive
SMILES: Cc1cc(N2CCOCC2)nc(Nc2nc(C)c3ccc4c(c3n2)CCCC4)n1

Activity (Quadruplex DNA [16]): inactive
Activity (dsDNA): inactive
Activity (Quadruplex DNA [14]): inactive
SMILES: Cc1cc(N2CCN(C(=O)OC(C)(C)C)CC2)nc(Nc2nc(C)c3ccc4c(c3n2)CCC4)n1

Activity (Quadruplex DNA [1]): Active
Activity (Quadruplex DNA [2]): Active
Activity (Quadruplex DNA [3]): Active
Activity (Quadruplex DNA [4]): inactive
Activity (Quadruplex DNA [5]): Active
Activity (Quadruplex DNA [6]): Active
Activity (Quadruplex DNA [7]): inactive
ΔTm (Quadruplex DNA [8]): 7 °C
Activity (Quadruplex DNA [9]): inactive
Activity (dsDNA): inactive
Activity (Quadruplex DNA [10]): Active
ΔTm (Quadruplex DNA [11]): 10 °C
Kd (Quadruplex DNA [12]): 175 nM
ΔTm (Quadruplex DNA [13]): 5 °C
Activity (Quadruplex DNA [14]): Active
Activity (Quadruplex DNA [15]): inactive
SMILES: Cc1cc(NCCCN2CCCCC2)nc(Nc2nc(C)c3ccc4c(c3n2)CCCC4)n1

Activity (dsDNA): inactive
SMILES: Cc1cc(NCCN2CCOCC2)nc(Nc2nc(C)c3ccc4c(c3n2)CCC4)n1
